Source: PubChem BioAssay (NCI)
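Interpolation was linear, between the two tested concentrations surrounding the appropriate level; five concentrations were tested over 48 hours in 96-well plates. The concentration for full growth arrest is given as TGI.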

Legend:
Experiment in all cases: NCI-60 cell line screen, 48 h
[1] = tested on: 786-0 renal
[2] = tested on: ACHN renal
[3] = tested on: HL-60(TB) leukemia
[4] = tested on: HOP-92 NSCLC
[5] = tested on: IGROV1 ovarian
[6] = tested on: MCF7 breast
[7] = tested on: SK-MEL-2 melanoma
[8] = tested on: SNB-75 CNS
[9] = tested on: SR leukemia
[10] = tested on: SW-620 colon

For `O=C(c1ccccc1)N1CCN(C(=S)NC2CCCCC2)C1=S`, the TGI [1] was 52.2 µM, the TGI [2] was 58 µM and the TGI [3] was 50.3 µM. It also gave a TGI [4] of 36.7 µM, a TGI [5] of 60.8 µM and a TGI [6] of 48.2 µM. It also gave a TGI [7] of 14.9 µM, a TGI [8] of 31.6 µM and a TGI [9] of 88.7 µM. For the same molecule, the TGI [10] was 55.6 µM.

For `CC(=O)OCC1OC(n2cnc3nc(Br)[nH]c(=O)c32)C(OC(C)=O)C1OC(C)=O` (stereo not given), the TGI [1] was > 100 µM, the TGI [2] was > 100 µM and the TGI [3] was > 100 µM. For the same molecule, the TGI [4] was > 100 µM, the TGI [5] was > 100 µM and the TGI [6] was > 100 µM. The TGI [7] was > 100 µM, the TGI [8] was > 100 µM and the TGI [9] was > 100 µM. The TGI [10] was > 100 µM.

In the case of `COc1cccc2c1NC(=O)Cc1c-2[nH]c2ccccc12`, the TGI [1] is reported as > 100 µM, the TGI [2] is reported as > 100 µM and the TGI [3] is reported as > 100 µM. For the same molecule, the TGI [4] was > 100 µM, the TGI [5] was > 100 µM and the TGI [6] was > 100 µM. For the same molecule, the TGI [7] was > 100 µM, the TGI [8] was > 100 µM and the TGI [9] was > 100 µM. The TGI [10] was > 100 µM.

In the case of `CC(C)NC(=O)OCc1c(COC(=O)NC(C)C)c(-c2ccc[n+](COC(=O)Cc3ccccc3)c2)n2c1CCC2`, the TGI [1] is reported as 44.4 µM, the TGI [2] is reported as 48.4 µM and the TGI [3] is reported as > 100 µM. The TGI [4] was 46.2 µM, the TGI [5] was > 100 µM and the TGI [6] was > 100 µM. For the same molecule, the TGI [7] was 62.1 µM, the TGI [8] was > 100 µM and the TGI [9] was > 100 µM. For the same molecule, the TGI [10] was 50.5 µM.

`C=C(C)[C@@H](O)[C@H](O)C[C@H](C)C1CC[C@]2(C)C1=CC[C@@H]1[C@@]3(C)CC[C@@H](OC(C)=O)C(C)(C)[C@@H]3C[C@@H](OC3OC(COC(C)=O)C(O)C(O)C3O)[C@]12C` (stereo not given in full) gave a TGI [1] of 11.4 µM, a TGI [2] of 6.36 µM and a TGI [3] of 4.2 µM. It also gave a TGI [4] of 6.17 µM, a TGI [5] of 6.4 µM and a TGI [6] of 8.82 µM. It also gave a TGI [7] of 3.63 µM, a TGI [8] of 8.32 µM and a TGI [9] of 4.2 µM. The TGI [10] was 12.3 µM.
